The source of these data is US20120164117A1, “METHODS OF GENERATING HUMAN CARDIAC CELLS AND TISSUES AND USES THEREOF” (TECHNION RESEARCH & DEVELOPMENT FOUNDATION LTD., priority 2001, published 2012).

The test system of assay [1] is human embryonic stem cell line H9.2 embryoid bodies. As to the kind of experiment: Cardiomyocyte differentiation efficiency, percentage of contracting embryoid bodies. In kind it is cell-based. From the text:
Generation of human embryonic stem cell-derived cardiomyocytic cells: Ten different human embryonic stem cell lines including line H9 or its single cell clonal derivative H9.2 (Amit, M. et al., 2000. Dev. Biol. 227: 271) were individually grown on a mitotically inactivated (mitomycin C) mouse embryonic fibroblast feeder cell layer in culture medium, as previously described (Thomson, J. A. et al., 1998. Science 282: 1145). The culture medium consisted of 80% knockout DMEM (no-pyruvate, high-glucose formulation; Life Technologies, Inc., Rockville, Md., USA.) supplemented with 20% FBS (HyClone, Logan, Utah, USA.), 1 mM L-glutamine, 0.1 mM mercaptoethanol, and 1% nonessential amino acid stock (all from GIBCO-BRL). To induce differentiation, embryonic stem cells were dispersed into small clumps (3-20 cells) using collagenase IV (Life Technologies, Inc., 1 mg/ml for 20 minutes). […] The percentage of embryoid bodies displaying contracting areas, as well as the distribution of the timing of onset of spontaneous beating were evaluated. […] In addition, the effect of DMSO, a known stimulant of differentiation into cardiomyocytic lineage was assessed by adding dimethyl sulfoxide (Sigma Chemical Co., St. Louis, Mo., USA.) at a concentration of 0.75% (vol/vol) to the culture medium during the 10 days of growth in suspension. […]

Assay [2] concerns human embryonic stem cell-derived cardiomyocytic tissue (contracting embryoid bodies). The assay can be described thus: Pharmacological analysis of conduction, multielectrode array activation mapping of embryoid bodies. In kind it is cell-based. To be noted: for total activation time: one embryoid body. Also noted: Global Velocity / Mean CV Vector: unit not given here.
Assay [3] deals with hybrid rat ventricular myocyte-human embryonic stem cell-derived cardiomyocyte co-cultures. As to the kind of experiment: Electrical coupling in hybrid human ES cell-derived cardiomyocyte / neonatal rat ventricular myocyte co-cultures on microelectrode array. In kind it is cell-based. The protocol:
Performed as described above in Example 2 of the Examples section. Primary monolayer cultures of neonatal rat (Sprague Dawley) ventricular myocytes were prepared as previously described (Fast V G. and Kleber A G., 1993. Circ Res. 73:914). Briefly, following excision, the ventricles were minced and treated with RDB (IIBR, Ness-Ziona, Israel). Dispersed cells were then cultured on gelatin coated (0.1%) microelectrode array plates or on glass cover slips at a density of 1.5×10^6 cells/ml. […] Pacing studies in co-cultures were performed by electrically stimulating the human or rat tissues with one of the electrodes of the multielectrode array. The degree of electrical coupling between the two tissue types was also assessed during long term recordings and during adrenergic stimulation and partial gap junction uncoupling. The cycle-lengths of the electrical activity in the ES cell-derived cardiomyocytes and in the rat tissue were measured and a histogram depicting the ratio between these two cycle-lengths during long-term recordings is shown in FIG. 16i.

In assay [4] the test system is human embryonic stem cell-derived cardiomyocytic cells (contracting embryoid bodies). The assay can be described thus: Chronotropic responses of contracting embryoid bodies, multielectrode array extracellular recordings. Particulars: for spontaneous contraction rate, % of baseline (initial) value: drug at 10^−6 M (1 μM). The assay is classed as cell-based. From the text:
Multielectrode array (MEA) extracellular electrophysiology mapping and pharmacological studies: Intact contracting areas within the embryoid bodies were mechanically dissected using a pulled-glass micropipette and plated on gelatin-coated multielectrode arrays (Multi Channel Systems MCS GmbH, Reutlingen, Germany; Igelmund, P. et al., 1999. Pflugers Arch. 437: 669). The microelectrode array consists of 60 titanium nitride electrodes with gold contacts 30 μm in diameter with an interelectrode distance of 100-200 μm. The contracting areas were plated on top of the microelectrode arrays and cells were grown to confluence over the electrodes. […] Extracellular signals were recorded simultaneously from all 60 electrodes at 25 kHz and band-pass filtered from 1 to 3000 Hz. Recordings were performed in culture medium at 37° C. A pH of 7.4 was maintained using perfusion with an atmosphere containing 5% CO2 and 95% air. Chronotropic responses were assessed by extracellular recordings for 10 minutes prior to and following […], 1 μM carbamylcholine, 10 μM 3-isobutyl-1-methylxanthine (IBMX), or 1 μM forskolin (all from Sigma). Statistical analysis: Data are expressed as mean ±standard deviation. In order to assess possible chronotropic effects, the average spontaneous beating rate was compared prior to and following drug application using two-tailed paired Student's t test.

In assay [5] the test system is swine model of complete atrioventricular block. As to the kind of experiment: Swine complete atrioventricular block model transplanted with human ES cell-derived cardiomyocytic cells, rate of new ventricular rhythm. In kind it is in vivo. To be noted: following isoproterenol (20 μM); rate before 68±4 beats/minute.
[6] abbreviates: extracellular potassium 10 mM, n=7.
The mark [7] stands for this setting: extracellular potassium 15 mM, n=7.
The mark [8] stands for this setting: extracellular potassium 20 mM, n=7.

Each structure is given as a SMILES string. Where two headings read alike, the source gives them in different places.

On to `C[S+](C)[O-]` [DMSO, dimethyl sulfoxide], for which, in assay [1] (0.75 percent (v/v) dimethyl sulfoxide), the “increase of the percentage of embryoid bodies with cells displaying cardiac lineage differentiation” value is “about 20%”. Besides, the “percentage of embryoid bodies demonstrating contracting areas” value in assay [1] (DMSO 0.75% (vol/vol) during suspension, 8.1% without) came to 10.1%.

In the case of `COc1ccc([C@@H]2Sc3ccccc3N(CCN(C)C)C(=O)[C@@H]2OC(C)=O)cc1.Cl` [Diltiazem, diltiazem hydrochloride], in assay [2], the “Global Velocity” value worked out at 2.8 ± 2.0; the “Maximal − dv/dt” value came out at 2.5 ± 4.2 mV/sec; the “Mean CV Vector” value is reported as 5.7 ± 4.2; the “changes in the conduction parameters studied (global velocity, local velocity vector, −dV/dtmax)” value was “did not result in significant changes”.

`CCCCCCCO` [Heptanol, 1-Heptanol] displayed a total activation time in assay [2] (1-heptanol 0.3 mM, baseline 15 milliseconds) of 32 milliseconds. The “effect of higher doses on beating” value in assay [2] (1-heptanol 0.6 and 1 mM, n=8) is reported as “complete cessation of beating”. In assay [2] (heptanol 0.3 mM, n=7), the “Global Velocity” value is listed as 1.7 ± 0.6, the “Maximal − dv/dt” value was 2.0 ± 2.3 mV/sec and the “Mean CV Vector” value is reported as 3.0 ± 5.7. In assay [2] (heptanol 0.6 mM), the “Global Velocity” value was 1.2 ± 0.9, the “Maximal − dv/dt” value amounted to 2.1 ± 3.0 mV/sec and the “Mean CV Vector” value came out at 3.0 ± 3.8. Besides, in assay [2] (heptanol 1 mM), the “Global Velocity” value is on record as “No conduction”, the “Maximal − dv/dt” value was “No conduction” and the “Mean CV Vector” value is recorded as “No conduction”. Moreover, the “co-cultures in which tight coupling was not altered” value in assay [3] (1-Heptanol 0.5 mM) is given as 5 of the 8. Further, the “co-cultures with occasional episodes of 2:1 conduction block” value in assay [3] (1-Heptanol 0.5 mM, 8 co-cultures studied) is recorded as 3.

Turning to `CC(C)Cn1c(=O)n(C)c(=O)c2[nH]cnc21` [IBMX, 3-isobutyl-1-methylxanthine], the “spontaneous contraction rate, % of initial value” in assay [4] (10 μM IBMX, n=6, mean ± SD) is recorded as 152±77%.

Take `CC(C)NCC(O)c1ccc(O)c(O)c1` (centres unmarked) [Isoproterenol, isoproterenol]: the “chronotropic response of contracting embryoid bodies” value in assay [4] (10 μM isoproterenol) is listed as “positive chronotropic responses”. Also, the “spontaneous contraction rate, % of baseline (initial) value” in assay [4] (mean ± SD) is listed as 146±43%. Further, in assay [3] (isoproterenol 10 μM), the “electrical coupling between the two cell types” value is “not hindered”. Also, the spontaneous beating rate in assay [3] (isoproterenol 10 μM, base line 1.6±0.6 Hz, p<0.05) is on record as 1.9±0.8 Hz. Further, the “heart rate of the new ventricular rhythm” value in assay [5] worked out at 105±10 beats/minute.

For the compound `[K+]` [Potassium], the “Global Velocity” value is on record as 1.6 ± 0.6 in assay [2] (setting [6]), 1.0 ± 0.3 in assay [2] (setting [7]) and 1.0 ± 0.4 in assay [2] (setting [8]). Besides, the “Maximal − dv/dt” value is recorded as 2.7 ± 5.5 mV/sec in assay [2] (setting [6]), 1.1 ± 1.4 mV/sec in assay [2] (setting [7]) and 1.1 ± 1.2 mV/sec in assay [2] (setting [8]). Also, the entries for the “Mean CV Vector” value in assay [2] (setting [6]), in assay [2] (setting [7]) and in assay [2] (setting [8]) were 3.5 ± 4.2, 2.0 ± 2.3 and 1.5 ± 1, respectively. The total activation time was found to be 40 milliseconds in assay [2] (extracellular potassium 10 mM, baseline 25 milliseconds); 70 milliseconds in assay [2] (extracellular potassium 15 mM, baseline 25 milliseconds); 120 milliseconds in assay [2] (extracellular potassium 20 mM, baseline 25 milliseconds).

With `NC1=N[C@H](O)[C@H]2[C@H]3O[C@]4(O)O[C@@H]([C@@H](O)[C@@]2(N1)[C@@H]4O)[C@]3(O)CO` [TTX, tetrodotoxin], in assay [2], the “Global Velocity” value stood at 1.8 ± 0.9, the “Maximal − dv/dt” value was found to be 1.9 ± 1.9 mV/sec, the “Mean CV Vector” value is 3.2 ± 3 and the “total microelectrode array activation time” value was determined as 35 milliseconds.

Consider `CN1[C@@H]2CC[C@H]1C[C@@H](OC(=O)C(CO)c1ccccc1)C2` (some centres unmarked) [atropine], for which, in assay [4], the “effect on carbamylcholine-induced decrease of spontaneous contraction rate” value is listed as “reversed”.

Turning to `C[N+](C)(C)CCOC(N)=O.[Cl-]` [carbamylcholine], the “spontaneous contraction rate, % of baseline (initial) value” in assay [4] (mean ± SD) is given as 78±20%.

With `C=C[C@@]1(C)CC(=O)[C@]2(O)[C@@]3(C)[C@@H](O)CCC(C)(C)[C@@H]3[C@H](O)[C@H](OC(C)=O)[C@@]2(C)O1` [forskolin], in assay [4] (mean ± SD), the “spontaneous contraction rate, % of baseline (initial) value” is listed as 182±48%.
